Patent US11529391B2, “Reversing deficient hedgehog signaling restores deficient skeletal regeneration” (The Board of Trustees of the Leland Stanford Junior …, priority 2017, dated 2022)
Entries after “also recorded” stand apart in the source; their conditions may differ.

Legend:
[1] = tested on: Ihh expression; test: qRT-PCR of Ihh expression in mSSC and BCSP cultures in supplemented media; format: cell-based, mouse
Protocol: To determine if high levels of glucose or TNFα could directly repress Hh expression in skeletal niches, we cultured FACS-sorted mSSCs and BCSPs from uninjured P3 WT femora in glucose-supplemented, TNFα-supplemented, or control media for 48 hours. […] Furthermore, neutralization of TNFα with anti-TNFα antibodies restored Ihh expression levels in mSSCs cultured in dbLR serum (FIG. 15).
(§1) Cell culture. Cells were maintained in vitro in Minimum Essential Media (MEM) with 10% FBS and 1% penicillin-streptomycin (Penstrep) under 2% O2/7.5% CO2. Each plate was coated with 0.1% gelatin. Cultured cells were lifted using collagenase II buffer (Sigma-Aldrich). For mSSC colony forming assays, cells were cultured for 2 weeks and colonies were counted using phase microscopy. The cells were lifted for staining and analysis by FACS. Osteogenic differentiation medium consisted of Dulbecco's Modified Eagle Medium with 10% FBS, 100 μg/ml ascorbic acid, and 10 mM-glycerophosphate. mSSCs isolated from P3, WT, and db mice were maintained in either regular media (MEM-alpha medium with 10% FBS, 1% Penstrep) or regular media supplemented with Ihh (R&D, […]), Shh (R&D, 500 pg/mL), or PBS under 2% O2/7.5% CO2 conditions. After 7 days, cells were lifted for staining and analysis by FACS or for RNA extraction and qRT-PCR.
Quantitative reverse transcription polymerase chain reaction (qRT-PCR). RNA was isolated from cells using the RNeasy Mini kit (Qiagen) as per manufacturer's instructions. Reverse transcription was performed and gene expression was examined by qRT-PCR using the Applied biosystems Prism 7900HT sequence detection system (Applied Biosystems) and SYBR Green PCR Master Mix (Applied Biosystems). All values were normalized using glyceraldehyde 3-phosphate dehydrogenase for mouse samples and using beta-actin for human samples. Specific primer sequences for genes of interest were obtained from PrimerBank.

[2] = tested on: WT mice; test: Femoral fracture healing after Hh antagonism, Mechanical Strength Testing (MST); format: in vivo, mouse; settings: oral gavage immediately after injury, post-fracture week 4, versus untreated
Protocol: (§2) To verify that Hh antagonism impairs fracture repair in vivo, we administered XL139 to WT mice via oral gavage immediately after injury and assessed healing femur strength at post-fracture week 4 using MST.
Femoral fractures. Ten-week old mice were anesthetized with aerosolized isoflurane. Analgesia was administered and the surgical site was prepared prior to skin incision. A medial parapatellar incision was created. The patella was dislocated laterally to expose the femoral condyles. The medullary cavity was reamed using a 25 to 23 G×⅝-inch regular bevel needle (BD) prior to insertion of an intramedullary pin of equal diameter into the medullary cavity. A transverse, middiaphyseal fracture was made using scissors. The pin remained in situ to provide relative stability during healing. The patella was relocated, muscles were reapproximated, and the skin was closed using a 6/0 nylon suture. Animals were radiographed to verify fracture alignment and assess fracture fixation. Animals with fracture displacement were excluded. Pin diameter was adjusted according to femoral cavity lumen diameter to minimize migration.
Mechanical Strength Testing (MST). MST was performed using a delaminator run by R.H. Dauskardt laboratory at Stanford University. […] The maximum load (N) to fracture was recorded (FIG. 9).

[3] = tested on: mSSCs and BCSPs; test: FACS count of mSSCs and BCSPs in calluses after Hh antagonism; format: in vivo, mouse; settings: post-fracture day 7 calluses of treated versus untreated WT mice
Protocol: as §2
Isolation of skeletal progenitor cells. Uninjured femora and fractured femora were harvested at post-fracture days 3, 7, 10, 14, 21, and 28. Fracture calluses were dissected using microscopy. Tissues were crushed with mortar and pestle in collagenase buffer (2.2 mg/ml collagenase, DNase, 1000×1 M CaCl2, 100×p188, 50×1 M Hepes, m199 solvent), and heated to 37° C. for 10 min to activate collagenase. Each sample underwent 3 serial digestions at 37° C. for 25 minutes under gentle agitation. Dissociated cells were filtered through a 40 μm nylon mesh and washed in FACS buffer (2% fetal bovine serum in PBS). Each sample was pelleted at 200 g at 4° C. and resuspended in FACS buffer. Then, each sample was layered onto a histopaque gradient prior to centrifugation at 1400 rpm for 15 minutes at room temperature with zero acceleration. The cloudy interphase was aspirated, washed with FACS buffer, and centrifuged. The cells were stained with fluorochrome-conjugated antibodies against CD45, Ter119, Tie2, αv-integrin, Ly 51, CD105, Thy 1.1, and Thy 1.2 for purification by flow cytometry. Cells were sorted twice (once on “yield,” then on “purity”) to increase purity (BD FACS Aria).

[4] = tested on: post-fracture day 7 WT mSSCs; test: In vitro osteogenesis of mSSCs under Hh antagonism, alizarin red staining; format: cell-based, mouse; settings: post-fracture day 7 WT mSSCs treated in vitro
Source text: To investigate if Hh signaling is essential for mSSC-dependent osteogenesis, we antagonized Hh signaling in post-fracture day 7 WT mSSCs in vitro using XL139, a small molecule antagonist of Smo.
as §1

Row | Molecule | dose dependence of repression of Ihh expression in BCSPs ([1]; BCSP-derived cultures from uninjured P3 mice) | Ihh expression (qRT-PCR) in BCSP cultures ([1]; BCSPs from uninjured P3 WT femora, supplemented media 48 hours versus control media) | Ihh expression (qRT-PCR) in mSSC cultures ([1]; mSSCs from uninjured P3 WT femora, supplemented media 48 hours versus control media) | healing femur strength (MST) [2] | number of mSSCs and BCSPs [3] | osteogenic potential of mSSCs (alizarin red staining) [4]
1 | TNFα | dose dependent; also recorded: dose-dependent | significantly reduced; also recorded: reduces | significantly reduced; also recorded: significantly diminishes | – | – | –
2 | CNCc1ccc(C)c(NC(=O)c2ccc(Nc3nc(-c4ccccc4)c4ccccc4n3)cc2)c1 [XL139] | – | – | – | reduced significantly | highly significant reduction | dose-dependent reduction; also recorded: reduces
